Several values for one entry are separate records, joined by “and”; a condition that tells them apart may be missing. Identical values can stand only once. Entries after “also recorded” stand apart in the source; their conditions may differ.
Assays:
[1] = Clinical study: inflammation markers, adhesion molecules, adiponectin (hsCRP, IL-6, sICAM, VCAM); format: in vivo, human; conditions: Fast, 6 weeks
Experimental: The following laboratory measurements were carried out on an automated analyzer (Roche Diagnostics, Indianapolis, Ind.) on samples obtained in the fasting state at the randomization visit, and the final visits using frozen aliquots of serum stored at −80 degrees Celsius: 1) total cholesterol; 2) triglycerides; 3) direct high density lipoprotein [“HDL”] cholesterol; 4) direct low density lipoprotein [“LDL”] cholesterol; 5) direct small dense LDL cholesterol; 6) apolipoprotein [“apo”] B; 7) apoA-I; 8) lipoprotein (a); 9) fibrinogen; 10) high sensitivity C reactive protein [“hs-CRP”]; 11) lipoprotein associated phospholipase A2 [“Lp-PLA2”]; and, 12) insulin as previously described. See, McNamara, J. R. and Schaefer, E. J., Clin. Chim. Acta, 166:1-8 (1987); Okada, M. et al., J. Lab. Clin. Med., 132:195-201 (1998); Hirano, T. et al., J. Lipid Res., 44:2193-2201 (2003); Ai, M. et al., Am. J. Cardiol., 101:315-318 (2008); Ingelsson, E. et al., JAMA, 298:776-785 (2007); Jenner, J. L. et al., Circulation, 87:1135-1141 (1993); Schaefer, E. J. et al., Am. J. Cardiol., 95:1025-1032 (2005); McNamara, J. R. et al., Atherosclerosis, 154:229-236 (2001).
Plasma apoB-48 was measured with an enzyme linked immunosorbent assay obtained from the Shibayagi Company (Gunma, Japan) (Kinoshita, M. et al., Clin. Chim. Acta, 351:115-120 (2005); Otokozawa, S. et al., Atherosclerosis, 205:197-201 (2009); Otokozawa, S. et al., Metabolism, 58(11): 1536-1542 (2009)). ICAM1 and VCAM1, interleukin-6 or IL-6, and adiponectin were all measured using commercially available enzyme linked immunoassays [“ELISA”] obtained from the R & D Corporation (Minneapolis, Minn.). All these assays have within and between run coefficients of variation of less than 10%.

[2] = cited from earlier work; for effects on C-reactive protein, interleukin-6, or tumor necrosis alpha: 4 grams per day; for reduction of triglyceride levels: overweight, hyperlipidemic men
[3] = Clinical study: serum fatty acid profiles (EPA, ARA/EPA, Total Omega-3 Score); format: in vivo, human; conditions: 6 weeks; for Total Omega-3 Score: FIG. 4; for serum level of EPA / serum ratio of ARA/EPA (Inflammation Index): EPA 600 and 1800 mg/day, DHA 600 mg/day; for serum level of EPA: FIG. 1; for serum ratio of ARA/EPA (Inflammation Index): FIG. 3
Experimental: (§1) On the samples obtained 4 hours after the fat-rich meal, total cholesterol, triglycerides, direct HDL cholesterol, and direct LDL cholesterol were measured. Direct LDL cholesterol and small dense LDL cholesterol levels were measured using kits obtained from Denka-Seiken Corporation, (Tokyo, Japan), as previously described (Okada, M. et al., supra; Hirano, T. et al., supra; Ai, M. et al., supra). Remnant lipoprotein cholesterol was measured using kits obtained from Polymedco (Cortland Manor, N.Y.) and manufactured by Otsuka Corporation (Tokyo, Japan) as previously described (McNamara, J. R. et al., Atherosclerosis, supra). All lipid assays are standardized through the Lipid Research Clinics standardization program of the Centers for Disease Control (Atlanta, Ga.). All assays had between and within run coefficients of variation of <5%. Serum fatty acid profiles were analyzed by Nutrasource Diagnostics (Guelph, Ontario, Canada).

[4] = Clinical study: post-prandial lipids 4 hours after fat-rich test meal; format: in vivo, human; conditions: 6 weeks
Experimental: At visit 2, subjects were again asked to fast for 12 hours, and information about subject characteristics including all vital signs, recent illness or hospitalization, medication and supplement use, and diet information was again obtained. Subjects then had blood drawn for a metabolic profile and complete blood counts. […] Subjects (30 in each group) were then randomized equally for 6 weeks to one of four treatment arms: 1) olive oil placebo; 2) 600 mg of EPA/day; 3) 1800 mg of EPA/day; and, 4) 600 mg of DHA/day. At one week and three weeks after beginning the supplements, all study subjects were contacted by telephone and asked about any adverse effects and about their compliance, and the information on their calendars with regard to capsule use and fish intake. They were also asked about whether they had experienced any fishy aftertaste or odor, and if so, how frequent were these episodes, and how unpleasant were they? The entire process as listed above was repeated after study subjects were on the study capsules for 6 weeks at the time of the final visit. Compliance and adverse events were assessed by telephone at weeks 1 and 3 by telephone and at week 6 by questionnaire and capsule count. Over 42 days, subjects were expected to have consumed a total of 252 capsules. Compliance was calculated as a percentage of consumed capsule count/expected capsule count based on the number of days the subject was in the study. All subjects were asked to stay on their capsules until they come in for their final visit. Compliance in all participants who completed the study was based on capsule count was in excess of 85%, mean 96%.
as §1

CCC=CCC=CCC=CCC=CCC=CC/C=C\CCC(=O)O [DHA, cis-4,7, 10, 13, 16, 19-docosahexaenoic acid, reference compound]
Adiponectin, 6-Week Change (%) ([1]; DHA 600 mg (n = 28)): −6.7 ± 19.8%
Adiponectin, Final ([1]; DHA 600 mg (n = 28)): 11380.0 ± 14772.6 ng/mL
IL-6, 6-Week Change (%) ([1]; DHA 600 mg (n = 28)): +5.7 ± 50.3%
IL-6, Final ([1]; DHA 600 mg (n = 28)): 1.6 ± 0.9 pg/mL
VCAM, 6-Week Change (%) ([1]; DHA 600 mg (n = 28)): +0.2 ± 11.0%
VCAM, Final ([1]; DHA 600 mg (n = 28)): 673.0 ± 197.4 ng/mL
hsCRP, 6-Week Change (%) ([1]; DHA 600 mg (n = 28)): +27.1 ± 82.3%
hsCRP, Final ([1]; DHA 600 mg (n = 28)): 3.4 ± 4.5 mg/L
sICAM, 6-Week Change (%) ([1]; DHA 600 mg (n = 28)): +0.7 ± 18.0%
sICAM, Final ([1]; DHA 600 mg (n = 28)): 240.2 ± 114.1 ng/mL
effects on C-reactive protein, interleukin-6, or tumor necrosis alpha [2]: no significant effects
HDL2 cholesterol ([2]; 4 grams/day): significantly increased
forearm blood flow in response to acetylcholine infusion relative to placebo ([2]; 4 grams/day): significantly increased
reduction of triglyceride levels ([2]; 4 grams/day): 20%
retroconversion of DHA to EPA [3]: no indication
Total Omega-3 Score [3]: increased
serum level of EPA [3]: not
serum ratio of ARA/EPA (Inflammation Index) ([3]; listed as DHA-rich oil): no such effect
HDL C, 6-Week Change (%) ([4]; DHA 600 mg (n = 28)): +1.2 ± 10.9%
HDL C, Final ([4]; DHA 600 mg (n = 28)): 57.5 ± 22.7 mg/dL
LDL C, Final ([4]; DHA 600 mg (n = 28)): 121.9 ± 32.9 mg/dL
Total Cholesterol, 6-Week Change (%) ([4]; DHA 600 mg (n = 28)): +6.2 ± 10.8%
Total Cholesterol, Final ([4]; DHA 600 mg (n = 28)): 211.1 ± 38.6 mg/dL
Triglyceride, 6-Week Change (%) ([4]; DHA 600 mg (n = 28)): −9.5% and −9.5 ± 24.4%
Triglyceride, Final ([4]; DHA 600 mg (n = 28)): 169.8 ± 89.2 mg/dL

CCC=CCC=CCC=CCC=CC/C=C\CCCC(=O)O [EPA, cis-5,8, 11, 14, 17-eicosapentaenoic acid]
Adiponectin, 6-Week Change (%) ([1]; EPA 600 mg (n = 27)): 11.3 ± 31.4%
Adiponectin, Final ([1]; EPA 600 mg (n = 27)): 9501.4 ± 5894.3 ng/mL
IL-6, 6-Week Change (%) ([1]; EPA 600 mg (n = 27)): +35.3 ± 126.1%
IL-6, Final ([1]; EPA 600 mg (n = 27)): 2.0 ± 1.8 pg/mL
VCAM, 6-Week Change (%) ([1]; EPA 600 mg (n = 27)): +2.2 ± 12.6%
VCAM, Final ([1]; EPA 600 mg (n = 27)): 722.8 ± 178.0 ng/mL
hsCRP, 6-Week Change (%) ([1]; EPA 600 mg (n = 27)): +115.6 ± 508.4%
hsCRP, Final ([1]; EPA 600 mg (n = 27)): 3.3 ± 4.9 mg/L
sICAM, 6-Week Change (%) ([1]; EPA 600 mg (n = 27)): +3.2 ± 19.0%
sICAM, Final ([1]; EPA 600 mg (n = 27)): 232.4 ± 62.7 ng/mL
Adiponectin, 6-Week Change (%) ([1]; EPA 1800 mg (n = 29)): 16.4 ± 82.6%
Adiponectin, Final ([1]; EPA 1800 mg (n = 29)): 17578.6 ± 45606.9 ng/mL
IL-6, 6-Week Change (%) ([1]; EPA 1800 mg (n = 29)): +3.1 ± 50.1%
IL-6, Final ([1]; EPA 1800 mg (n = 29)): 1.3 ± 0.7 pg/mL
VCAM, 6-Week Change (%) ([1]; EPA 1800 mg (n = 29)): +1.0 ± 13.5%
VCAM, Final ([1]; EPA 1800 mg (n = 29)): 607.5 ± 125.7 ng/mL
hsCRP, 6-Week Change (%) ([1]; EPA 1800 mg (n = 29)): +26.0 ± 113.0%
hsCRP, Final ([1]; EPA 1800 mg (n = 29)): 2.7 ± 4.7 mg/L
sICAM, 6-Week Change (%) ([1]; EPA 1800 mg (n = 29)): −2.6 ± 17.1%
sICAM, Final ([1]; EPA 1800 mg (n = 29)): 206.9 ± 50.5 ng/mL
effects on C-reactive protein, interleukin-6, or tumor necrosis alpha [2]: no significant effects
reduction of triglyceride levels ([2]; 4 grams/day): 18%
metabolic conversion of EPA to DHA [3]: no indication
Total Omega-3 Score [3]: increased
serum level of EPA [3]: significantly raised
serum ratio of ARA/EPA (Inflammation Index) ([3]; listed as EPA substantially free of DHA): significantly decreased
serum ratio of ARA/EPA (Inflammation Index) ([3]; listed as EPA-rich oil): dose-related decrease; also recorded: significantly decreased
HDL C, 6-Week Change (%) ([4]; EPA 600 mg (n = 27)): +4.8 ± 20.7%
HDL C, Final ([4]; EPA 600 mg (n = 27)): 53.1 ± 16.4 mg/dL
LDL C, 6-Week Change (%) ([4]; EPA 600 mg (n = 27)): −1.4 ± 12.9%
LDL C, Final ([4]; EPA 600 mg (n = 27)): 108.2 ± 32.2 mg/dL
Total Cholesterol, 6-Week Change (%) ([4]; EPA 600 mg (n = 27)): −0.3 ± 8.6%
Total Cholesterol, Final ([4]; EPA 600 mg (n = 27)): 193.3 ± 44.7 mg/dL
Triglyceride, 6-Week Change (%) ([4]; EPA 600 mg (n = 27)): −3.1 ± 36.9%
Triglyceride, Final ([4]; EPA 600 mg (n = 27)): 184.9 ± 98.5 mg/dL
HDL C, 6-Week Change (%) ([4]; EPA 1800 mg (n = 29)): +3.4 ± 11.5%
HDL C, Final ([4]; EPA 1800 mg (n = 29)): 55.3 ± 15.3 mg/dL
LDL C, 6-Week Change (%) ([4]; EPA 1800 mg (n = 29)): −2.7 ± 13.6%
LDL C, Final ([4]; EPA 1800 mg (n = 29)): 111.5 ± 25.2 mg/dL
Total Cholesterol, 6-Week Change (%) ([4]; EPA 1800 mg (n = 29)): −1.4 ± 9.9%
Total Cholesterol, Final ([4]; EPA 1800 mg (n = 29)): 197.3 ± 33.8 mg/dL
Triglyceride, 6-Week Change (%) ([4]; EPA 1800 mg (n = 29)): −3.8 ± 40.2%
Triglyceride, Final ([4]; EPA 1800 mg (n = 29)): 193.5 ± 184.2 mg/dL

From patent publication US20110178105A1, “CLINICAL BENEFITS OF EICOSAPENTAENOIC ACID IN HUMANS” (E.I. DU PONT DE NEMOURS AND COMPANY, priority 2010, published 2011)
